A value given as a limit tells only on which side of the number the result lay.

Data on 19 molecules can be found in patent US9399646B2 (Genentech, Inc., priority 2010, dated 2016).

One test concerns MCF-7 cells. Put plainly: Breast cancer cell viability assay (CellTiter-Glo, 5 days). The class given is cell-based. The settings on record: 5 days' compound exposure; for IC50: Homo sapiens, MCF7, 120 h. The procedure, abridged:
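Eleven-point semilog compound series, final 0.3-0.000003 μM, added to overnight-adhered MCF-7 cells (320/well; RPMI, 10% FBS, 20 mM HEPES) for 5 days. Viability read by CellTiter-Glo luminescence, background from medium without cells subtracted, expressed relative to untreated cells.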
Background: In ATP-based viability assays light output follows the ATP content of the culture.

For another test, the target named is T1, ER-α in MCF-7 cells (Homo sapiens, UniProt P03372).
T1 sequence (P03372 1-595): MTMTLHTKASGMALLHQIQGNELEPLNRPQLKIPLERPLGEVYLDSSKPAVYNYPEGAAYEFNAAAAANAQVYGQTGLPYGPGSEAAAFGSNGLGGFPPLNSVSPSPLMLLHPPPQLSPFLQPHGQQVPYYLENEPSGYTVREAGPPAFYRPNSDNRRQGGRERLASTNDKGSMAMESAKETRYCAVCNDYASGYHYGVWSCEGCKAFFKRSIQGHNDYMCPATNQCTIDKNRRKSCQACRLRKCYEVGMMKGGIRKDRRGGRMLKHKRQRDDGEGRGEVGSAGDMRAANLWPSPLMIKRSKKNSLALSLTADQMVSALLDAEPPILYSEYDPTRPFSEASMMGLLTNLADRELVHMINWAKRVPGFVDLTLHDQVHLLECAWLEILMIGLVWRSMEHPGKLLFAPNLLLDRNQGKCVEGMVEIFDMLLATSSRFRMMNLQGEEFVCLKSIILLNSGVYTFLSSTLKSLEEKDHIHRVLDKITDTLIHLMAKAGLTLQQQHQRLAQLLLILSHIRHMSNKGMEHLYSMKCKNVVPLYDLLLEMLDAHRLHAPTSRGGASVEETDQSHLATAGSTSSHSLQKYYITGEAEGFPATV
As to the kind of experiment: Breast cancer cell ER-α in cell western assay (SP1). Format: cell-based. On the set-up: endogenous in cells; host or cells: MCF-7. The settings on record: 4 or 24 hr post compound addition; for Emax: MCF7, SP1 antibody, read-out: ER-α In Cell Western Assay (SP1) Max Response; for DC50: SP1 antibody, read-out: ER-α In Cell Western Assay (SP1) IC50. In outline: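 Read-out is infrared in-cell western: SP1-detected ER intensity at 800 nm divided by DRAQ5 DNA intensity at 700 nm, relative to untreated wells ×100.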

What is called IC50 is the concentration that inhibits the measured activity by half. Higher therefore signals a need for much substance. Turning to `CC/C(=C(/c1ccc(/C=C/C(=O)O)cc1)c1ccc2[nH]ncc2c1)c1ccncc1Cl` [Compound 204, (E)-3-(4-((E)-2-(3-Chloropyridin-4-yl)-1-(1H-indazol-5-yl)but-1-en-1-yl)phenyl)acrylic acid], in the test on MCF-7 cells, the “MCF7 Viability Assay Max Response” value is listed as “++ (++ = a single % value ≧ 40%)” and the IC50 was not above 100 nM. In addition, the Emax at ER-α in MCF-7 cells is not below 40%.
Consider `CC/C(=C(/c1ccc(/C=C/C(=O)O)cc1)c1ccc2[nH]ncc2c1)c1cnccc1C(F)(F)F` [Compound 207, (E)-3-(4-((E)-1-(1H-Indazol-5-yl)-2-(4-(trifluoromethyl)pyridin-3-yl)but-1-en-1-yl)phenyl)acrylic acid], for which, in the test with MCF-7 cells, the “MCF7 Viability Assay Max Response” value is reported as “++ (++ = a single % value ≧ 40%)” and the IC50 was not above 100 nM. Besides, on ER-α in MCF-7 cells, the Emax is not below 40% and the DC50 is not above 100 nM.
With `CC/C(=C(/c1ccc(/C=C/C(=O)O)cc1)c1ccc2[nH]ncc2c1)c1ccnn1C` [Compound 208, (E)-3-(4-((E)-1-(1H-Indazol-5-yl)-2-(1-methyl-1H-pyrazol-5-yl)but-1-en-1-yl)phenyl)acrylic acid], in the test with MCF-7 cells, the “MCF7 Viability Assay Max Response” value is listed as “+ (+ = a single % value < 40%)” and the IC50 is more than 100 nM. Further, on ER-α in MCF-7 cells, the Emax is not below 40% and the DC50 was more than 100 nM.
Consider `CC/C(=C(/c1ccc(/C=C/C(=O)O)cc1)c1ccc2[nH]ncc2c1)c1ccc(C(=O)N(C)C)cc1F` [Compound 212, (E)-3-(4-((E)-2-(4-(Dimethylcarbamoyl)-2-fluorophenyl)-1-(1H-indazol-5-yl)but-1-en-1-yl)phenyl)acrylic acid], for which, in the test on MCF-7 cells, the “MCF7 Viability Assay Max Response” value is “++ (++ = a single % value ≧ 40%)” and the IC50 is more than 100 nM. Moreover, at ER-α in MCF-7 cells, the Emax was not below 40% and the DC50 was more than 100 nM.
For the molecule `CC/C(=C(/c1ccc(/C=C/C(=O)O)cc1)c1ccc2[nH]ncc2c1)c1ccc(C(=O)NC)cc1F` [Compound 213, (E)-3-(4-((E)-2-(2-Fluoro-4-(methylcarbamoyl)phenyl)-1-(1H-indazol-5-yl)but-1-en-1-yl)phenyl)acrylic acid], in the test on MCF-7 cells, the “MCF7 Viability Assay Max Response” value is given as “+ (+ = a single % value < 40%)” and the IC50 was more than 100 nM. In addition, at ER-α in MCF-7 cells, the Emax was not below 40% and the DC50 is more than 100 nM.
As for `CC/C(=C(/c1ccc(/C=C/C(=O)O)cc1)c1ccc2[nH]ncc2c1)c1ccsc1C` [Compound 214, (E)-3-(4-((E)-1-(1H-Indazol-5-yl)-2-(2-methylthiophen-3-yl)but-1-en-1-yl)phenyl)acrylic acid], in the test on MCF-7 cells, the “MCF7 Viability Assay Max Response” value is reported as “++ (++ = a single % value ≧ 40%)” and the IC50 is not above 100 nM. Besides, at ER-α in MCF-7 cells, the Emax is not below 40% and the DC50 was not above 100 nM.
Regarding `CC/C(=C(/c1ccc(/C=C/C(=O)O)cc1)c1ccc2[nH]ncc2c1)c1cccnc1C` [Compound 217, (E)-3-(4-((E)-1-(1H-Indazol-5-yl)-2-(2-methylpyridin-3-yl)but-1-en-1-yl)phenyl)acrylic acid], in the test with MCF-7 cells, the “MCF7 Viability Assay Max Response” value is reported as “++ (++ = a single % value ≧ 40%)” and the IC50 is more than 100 nM. The Emax at ER-α in MCF-7 cells is not below 40%.
Take `CC/C(=C(/c1ccc(/C=C/C(=O)O)cc1)c1ccc2[nH]ncc2c1)c1cnccc1C` [Compound 218, (E)-3-(4-((E)-1-(1H-Indazol-5-yl)-2-(4-methylpyridin-3-yl)but-1-en-1-yl)phenyl)acrylic acid]: in the test on MCF-7 cells, the “MCF7 Viability Assay Max Response” value is “++ (++ = a single % value ≧ 40%)” and the IC50 was more than 100 nM. Further, the Emax on ER-α in MCF-7 cells is not below 40%.
For `CC/C(=C(/c1ccc(/C=C/C(=O)O)cc1)c1ccc2[nH]ncc2c1)c1cnccn1` [Compound 219, (E)-3-(4-((E)-1-(1H-Indazol-5-yl)-2-(pyrazin-2-yl)but-1-en-1-yl)phenyl)acrylic acid], in the test with MCF-7 cells, the “MCF7 Viability Assay Max Response” value is “++ (++ = a single % value ≧ 40%)” and the IC50 was more than 100 nM. Further, on ER-α in MCF-7 cells, the Emax was not below 40% and the DC50 is more than 100 nM.
For `CC/C(=C(/c1ccc(/C=C/C(=O)O)cc1)c1ccc2[nH]ncc2c1)c1cncnc1` [Compound 220, (E)-3-(4-((E)-1-(1H-Indazol-5-yl)-2-(pyrimidin-5-yl)but-1-en-1-yl)phenyl)acrylic acid], in the test with MCF-7 cells, the “MCF7 Viability Assay Max Response” value is reported as “+ (+ = a single % value < 40%)” and the IC50 is more than 100 nM. In addition, at ER-α in MCF-7 cells, the Emax was less than 40% and the DC50 was more than 100 nM.
As to `CC/C(=C(/c1ccc(/C=C/C(=O)O)cc1)c1ccc2[nH]ncc2c1)c1cnnn1C` [Compound 221, (E)-3-(4-((E)-1-(1H-Indazol-5-yl)-2-(1-methyl-1H-1,2,3-triazol-5-yl)but-1-en-1-yl)phenyl)acrylic acid], in the test with MCF-7 cells, the “MCF7 Viability Assay Max Response” value was “+ (+ = a single % value < 40%)” and the IC50 is more than 100 nM. Also, on ER-α in MCF-7 cells, the Emax was less than 40% and the DC50 is more than 100 nM.
For the molecule `CC/C(=C(/c1ccc(/C=C/C(=O)O)cc1)c1ccc2[nH]ncc2c1)c1cccnc1C(F)(F)F` [Compound 222, (E)-3-(4-((E)-1-(1H-Indazol-5-yl)-2-(2-(trifluoromethyl)pyridin-3-yl)but-1-en-1-yl)phenyl)acrylic acid], in the test on MCF-7 cells, the “MCF7 Viability Assay Max Response” value is “++ (++ = a single % value ≧ 40%)” and the 50% inhibitory concentration (IC50) is not above 100 nM. Moreover, on ER-α in MCF-7 cells, the Emax was not below 40% and the DC50 was not above 100 nM.
With `CC/C(=C(/c1ccc(/C=C/C(=O)O)cc1)c1ccc2[nH]ncc2c1)c1cscc1C` [Compound 223, (E)-3-(4-((E)-1-(1H-Indazol-5-yl)-2-(4-methylthiophen-3-yl)but-1-en-1-yl)phenyl)acrylic acid], in the test on MCF-7 cells, the “MCF7 Viability Assay Max Response” value is given as “++ (++ = a single % value ≧ 40%)” and the IC50 was not above 100 nM. Besides, the Emax on ER-α in MCF-7 cells is not below 40%.
For the molecule `CC/C(=C(/c1ccc(/C=C/C(=O)O)cc1)c1ccc2[nH]ncc2c1F)c1ccncc1Cl` [Compound 224, (E)-3-(4-((E)-2-(3-Chloropyridin-4-yl)-1-(4-fluoro-1H-indazol-5-yl)but-1-en-1-yl)phenyl)acrylic acid], in the test with MCF-7 cells, the “MCF7 Viability Assay Max Response” value is recorded as “++ (++ = a single % value ≧ 40%)” and the IC50 is not above 100 nM. For the same molecule, on ER-α in MCF-7 cells, the Emax was not below 40% and the DC50 was not above 100 nM.
Take `CC/C(=C(/c1ccc(/C=C/C(=O)O)cc1)c1ccc2[nH]ncc2c1)c1cnsc1` [Compound 225, (E)-3-(4-((E)-1-(1H-Indazol-5-yl)-2-(isothiazol-4-yl)but-1-en-1-yl)phenyl)acrylic acid]: in the test with MCF-7 cells, the “MCF7 Viability Assay Max Response” value is recorded as “++ (++ = a single % value ≧ 40%)” and the IC50 is more than 100 nM. On ER-α in MCF-7 cells, the Emax was not below 40% and the DC50 is more than 100 nM.
For the molecule `CC/C(=C(/c1ccc(/C=C/C(=O)O)cc1)c1ccc2[nH]ncc2c1)c1ccncc1C` [Compound 226, (E)-3-(4-((E)-1-(1H-Indazol-5-yl)-2-(3-methylpyridin-4-yl)but-1-en-1-yl)phenyl)acrylic acid], in the test on MCF-7 cells, the “MCF7 Viability Assay Max Response” value is given as “++ (++ = a single % value ≧ 40%)” and the IC50 was not above 100 nM. The Emax on ER-α in MCF-7 cells is not below 40%.
Regarding `CC/C(=C(/c1ccc(/C=C/C(=O)O)cc1)c1ccc2[nH]ncc2c1)c1ccc(C)s1` [Compound 227, (E)-3-(4-((E)-1-(1H-Indazol-5-yl)-2-(5-methylthiophen-2-yl)but-1-en-1-yl)phenyl)acrylic acid], in the test on MCF-7 cells, the “MCF7 Viability Assay Max Response” value is on record as “++ (++ = a single % value ≧ 40%)” and the IC50 is not above 100 nM. On ER-α in MCF-7 cells, the Emax was not below 40% and the DC50 was not above 100 nM.
`CC/C(=C(/c1ccc(/C=C/C(=O)O)cc1)c1ccc2[nH]ncc2c1)c1cnc(C)s1` [Compound 229, (E)-3-(4-((E)-1-(1H-Indazol-5-yl)-2-(2-methylthiazol-5-yl)but-1-en-1-yl)phenyl)acrylic acid]: in the test on MCF-7 cells, the “MCF7 Viability Assay Max Response” value is “++ (++ = a single % value ≧ 40%)” and the IC50 was more than 100 nM. Besides, at ER-α in MCF-7 cells, the Emax is not below 40% and the DC50 is more than 100 nM.
`O=C(O)/C=C/c1ccc(/C(=C(/CCF)c2ccncc2Cl)c2ccc3[nH]ncc3c2)cc1` [Compound 230, (E)-3-(4-((E)-2-(3-Chloropyridin-4-yl)-4-fluoro-1-(1H-indazol-5-yl)but-1-en-1-yl)phenyl)acrylic acid]: in the test with MCF-7 cells, the “MCF7 Viability Assay Max Response” value was “++ (++ = a single % value ≧ 40%)” and the IC50 was not above 100 nM. Further, on ER-α in MCF-7 cells, the Emax is not below 40% and the DC50 is not above 100 nM.
